Assay: Henry solubility constant Hcp at 295 K (mol/(m3 Pa))
Conditions: reference: Hellmann (1987)

Q: Which “Henry solubility constant Hcp at 295 K” value does the source give for `Clc1cc(Cl)cc(Cl)c1` [1,3,5-trichlorobenzene] here?
A: Its value is 0.035.

Q: With `O=[N+]([O-])c1ccc(Cl)cc1` [4-chloronitrobenzene] as the compound, how does the “Henry solubility constant Hcp at 295 K” value read?
A: The value was 0.18.

Q: With `CC(=O)CC(C)C` [4-methyl-2-pentanone] as the compound, how does the “Henry solubility constant Hcp at 295 K” value read?
A: Its value is 0.065.

Q: For `c1ccccc1` [benzene], which “Henry solubility constant Hcp at 295 K” value is on record?
A: Its value is 0.002.

Q: Which “Henry solubility constant Hcp at 295 K” value does the source give for `Clc1ccccc1` [chlorobenzene] here?
A: Its value is 0.0029.

Q: With `ClCCl` [dichloromethane] as the compound, how does the “Henry solubility constant Hcp at 295 K” value read?
A: Its value is 0.0057.

Q: With `O=[N+]([O-])c1ccccc1` [nitrobenzene] as the compound, how does the “Henry solubility constant Hcp at 295 K” value read?
A: Its value is 0.14.

Q: For `CCCCCOC(C)=O` [pentyl ethanoate], which “Henry solubility constant Hcp at 295 K” value is on record?
A: The value was 0.034.

Q: With `CC(C)=O` [propanone] as the compound, how does the “Henry solubility constant Hcp at 295 K” value read?
A: The value was 0.14.

Q: For `ClC(Cl)=C(Cl)Cl` [tetrachloroethene], which “Henry solubility constant Hcp at 295 K” value is on record?
A: The value was 0.00077.

Q: With `ClC(Cl)(Cl)Cl` [tetrachloromethane] as the compound, how does the “Henry solubility constant Hcp at 295 K” value read?
A: The value was 0.00033.

Q: Which “Henry solubility constant Hcp at 295 K” value does the source give for `ClC=C(Cl)Cl` [trichloroethene] here?
A: The value was 0.00098.

— Sander's compilation of Henry's law constants (doi:10.1007/bf00475967)
